Results: PubChem BioAssay AID2060902 (Molecular Pharmacology Branch, DTP, NCI, 2025)
pIC50: −log10 of the molar value.

Tested on: 485368-065-R3-J5-PDC spheroids with HUVEC/MSC, viability
Assay: Anticancer human tumor 485368-065-R3-J5-PDC patient-derived pancreatic carcinoma cell line growth inhibition [RAS]
Conditions: for pIC50: curve of first compound; for viability, T/C: stronger effect = lower value
How it was run: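 Tumour cells grown as complex spheroids with HUVEC endothelial cells and mesenchymal stem cells, treated with RAS pathway inhibitor combinations. Each agent spans half-log steps from near clinical Cmax, or 10 microM where Cmax is unknown.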
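Further: spheroids exposed to agents for seven days before readout.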

`CC1(C)CCC(Nc2ncc(C(F)(F)F)c(-c3c[nH]c4c(P(C)(C)=O)c(C#N)ccc34)n2)CN1` (configuration not stated) + C=CC(=O)N1CCN(c2nc(OCC3CCCN3C)nc3c(F)c(-c4nc(N)cc(C)c4C(F)(F)F)c(Cl)cc23)C(C)C1 showed a pIC50 (second compound 0.00316 µM) of 8.63, a pIC50 (second compound 0.01 µM) of 8.58 and a pIC50 (second compound 0.0316 µM) of 8.43. It also gave a pIC50 (second compound 0.1 µM) of 8.40, a pIC50 (second compound 0.316 µM) of 8.54 and a pIC50 (second compound 1 µM) of 8.40. For the same compound, the viability, T/C (second compound 0.00316 µM, first compound 0.000949 µM) was 92.5%, the viability, T/C (second compound 0.00316 µM, first compound 0.003 µM) was 39.1% and the viability, T/C (second compound 0.00316 µM, first compound 0.00949 µM) was 26.9%. It also gave a viability, T/C (second compound 0.00316 µM, first compound 0.03 µM) of 26.3%, a viability, T/C (second compound 0.00316 µM, first compound 0.0949 µM) of 30.9% and a viability, T/C (second compound 0.00316 µM, first compound 0.3 µM) of 27.9%. It also gave a viability, T/C (second compound 0.01 µM, first compound 0.000949 µM) of 87.5%, a viability, T/C (second compound 0.01 µM, first compound 0.003 µM) of 44.9% and a viability, T/C (second compound 0.01 µM, first compound 0.00949 µM) of 26.5%. The viability, T/C (second compound 0.01 µM, first compound 0.03 µM) was 28.2%, the viability, T/C (second compound 0.01 µM, first compound 0.0949 µM) was 28.2% and the viability, T/C (second compound 0.01 µM, first compound 0.3 µM) was 29.1%. The viability, T/C (second compound 0.0316 µM, first compound 0.000949 µM) was 73.6%, the viability, T/C (second compound 0.0316 µM, first compound 0.003 µM) was 54% and the viability, T/C (second compound 0.0316 µM, first compound 0.00949 µM) was 32.8%. The viability, T/C (second compound 0.0316 µM, first compound 0.03 µM) was 30.6%, the viability, T/C (second compound 0.0316 µM, first compound 0.0949 µM) was 30.8% and the viability, T/C (second compound 0.0316 µM, first compound 0.3 µM) was 28.2%. For the same compound, the viability, T/C (second compound 0.1 µM, first compound 0.000949 µM) was 83.5%, the viability, T/C (second compound 0.1 µM, first compound 0.003 µM) was 55.5% and the viability, T/C (second compound 0.1 µM, first compound 0.00949 µM) was 32.3%. It also gave a viability, T/C (second compound 0.1 µM, first compound 0.03 µM) of 30.9%, a viability, T/C (second compound 0.1 µM, first compound 0.0949 µM) of 30.5% and a viability, T/C (second compound 0.1 µM, first compound 0.3 µM) of 34.3%. It also gave a viability, T/C (second compound 0.316 µM, first compound 0.000949 µM) of 100%, a viability, T/C (second compound 0.316 µM, first compound 0.003 µM) of 48.4% and a viability, T/C (second compound 0.316 µM, first compound 0.00949 µM) of 32.6%. It also gave a viability, T/C (second compound 0.316 µM, first compound 0.03 µM) of 28.4%, a viability, T/C (second compound 0.316 µM, first compound 0.0949 µM) of 30.6% and a viability, T/C (second compound 0.316 µM, first compound 0.3 µM) of 27.4%. For the same compound, the viability, T/C (second compound 1 µM, first compound 0.000949 µM) was 87.1%, the viability, T/C (second compound 1 µM, first compound 0.003 µM) was 55.1% and the viability, T/C (second compound 1 µM, first compound 0.00949 µM) was 35.8%. For the same compound, the viability, T/C (second compound 1 µM, first compound 0.03 µM) was 25.6%, the viability, T/C (second compound 1 µM, first compound 0.0949 µM) was 32.1% and the viability, T/C (second compound 1 µM, first compound 0.3 µM) was 34.2%.
